Assay results: ChEMBL document CHEMBL1287733, “Implication of the disulfide bridge in trypsin inhibitor SFTI-1 in its interaction with serine proteinases” (Bioorg Med Chem, 2010)
Calls of active or inactive are those of the source. No cut-off for these calls is given here. Starred links: 1 amine or outer side, 2 acyl side, 3 side chain; linkers in the order of their positions; H or OH if unused. Non-standard residues stand in square brackets, D forms with d. Residues, ends and D or L forms follow the SMILES beside them. N(2-mercaptoethyl)Gly = O=C(CN(CCS[*:3])[*:1])[*:2]; hCys = N[C@@H](CCS)C(=O)O; Nphe = O=C(O)CNCc1ccccc1; Nlys = NCCCCNCC(=O)O

How the values were obtained:
Bos taurus [1] = organism: Bos taurus; test: Inhibition of bovine chymotrypsin
Bos taurus [2] = organism: Bos taurus; test: Inhibition of bovine trypsin

SMILES	Ka (Bos taurus [1])	Ka (Bos taurus [2])
CC[C@H](C)[C@@H]1NC(=O)[C@@H]2CCCN2C(=O)[C@@H]2CCCN2C(=O)[C@H]([C@@H](C)CC)NC(=O)[C@H](CO)NC(=O)CN(Cc2ccccc2)C(=O)[C@H]([C@@H](C)O)NC(=O)[C@@H](C(C)(C)S)NC(=O)[C@H](CCCNC(=N)N)NC(=O)CNC(=O)[C@H](CC(=O)O)NC(=O)[C@@H]2CCCN2C(=O)[C@H](Cc2ccccc2)NC(=O)[C@@H](C(C)(C)S)NC1=O	3.11 ×10⁵ /M	
CC[C@H](C)[C@@H]1NC(=O)[C@@H]2CCCN2C(=O)[C@@H]2CCCN2C(=O)[C@H]([C@@H](C)CC)NC(=O)[C@H](CO)NC(=O)CN(Cc2ccccc2)C(=O)[C@H]([C@@H](C)O)NC(=O)CN(CCS)C(=O)[C@H](CCCNC(=N)N)NC(=O)CNC(=O)[C@H](CC(=O)O)NC(=O)[C@@H]2CCCN2C(=O)[C@H](Cc2ccccc2)NC(=O)CN(CCS)C1=O (cyclo(DGR[N(2-mercaptoethyl)Gly]T[Nphe]SIPPI[N(2-mercaptoethyl)Gly]FP))	inactive	
CC[C@H](C)[C@@H]1NC(=O)[C@@H]2CCCN2C(=O)[C@@H]2CCCN2C(=O)[C@H]([C@@H](C)CC)NC(=O)[C@H](CO)NC(=O)CN(CCCCN)C(=O)[C@H]([C@@H](C)O)NC(=O)CN(CCS)C(=O)[C@H](CCCNC(=N)N)NC(=O)CNC(=O)[C@H](CC(=O)O)NC(=O)[C@@H]2CCCN2C(=O)[C@H](Cc2ccccc2)NC(=O)CN(CCS)C1=O (cyclo(DGR[N(2-mercaptoethyl)Gly]T[Nlys]SIPPI[N(2-mercaptoethyl)Gly]FP))		inactive
CC[C@H](C)[C@@H]1NC(=O)[C@@H]2CCCN2C(=O)[C@@H]2CCCN2C(=O)[C@H]([C@@H](C)CC)NC(=O)[C@H](CO)NC(=O)[C@H](CCCCN)NC(=O)[C@H]([C@@H](C)O)NC(=O)[C@@H]2CSSC[C@H](NC1=O)C(=O)N[C@@H](Cc1ccccc1)C(=O)N1CCC[C@H]1C(=O)N[C@@H](CC(=O)O)C(=O)NCC(=O)N[C@@H](CCCNC(=N)N)C(=O)N2	5.2 ×10⁶ /M	1.1 ×10¹⁰ /M
CC[C@H](C)[C@@H]1NC(=O)[C@@H]2CCCN2C(=O)[C@@H]2CCCN2C(=O)[C@H]([C@@H](C)CC)NC(=O)[C@H](CO)NC(=O)[C@H](Cc2ccccc2)NC(=O)[C@H]([C@@H](C)O)NC(=O)[C@H](CS)NC(=O)[C@H](CCCNC(=N)N)NC(=O)CNC(=O)[C@H](CC(=O)O)NC(=O)[C@@H]2CCCN2C(=O)[C@H](Cc2ccccc2)NC(=O)CN(CCS)C1=O (cyclo(CTFSIPPI[N(2-mercaptoethyl)Gly]FPDGR))	4.79 ×10⁸ /M	
CC[C@H](C)[C@@H]1NC(=O)[C@@H]2CCCN2C(=O)[C@@H]2CCCN2C(=O)[C@H]([C@@H](C)CC)NC(=O)[C@H](CO)NC(=O)CN(Cc2ccccc2)C(=O)[C@H]([C@H](C)O)NC(=O)[C@H](CS)NC(=O)[C@H](CCCNC(=N)N)NC(=O)CNC(=O)[C@H](CC(=O)O)NC(=O)[C@@H]2CCCN2C(=O)[C@H](Cc2ccccc2)NC(=O)[C@H](CS)NC1=O	3.9 ×10⁸ /M	
CC[C@H](C)[C@@H]1NC(=O)[C@@H]2CCCN2C(=O)[C@@H]2CCCN2C(=O)[C@H]([C@@H](C)CC)NC(=O)[C@H](CO)NC(=O)[C@H](CCCCN)NC(=O)[C@H]([C@@H](C)O)NC(=O)CN(CCS)C(=O)[C@H](CCCNC(=N)N)NC(=O)CNC(=O)[C@H](CC(=O)O)NC(=O)[C@@H]2CCCN2C(=O)[C@H](Cc2ccccc2)NC(=O)CN(CCS)C1=O (cyclo(DGR[N(2-mercaptoethyl)Gly]TKSIPPI[N(2-mercaptoethyl)Gly]FP))		inactive
CC[C@H](C)[C@@H]1NC(=O)[C@@H]2CCCN2C(=O)[C@@H]2CCCN2C(=O)[C@H]([C@@H](C)CC)NC(=O)[C@H](CO)NC(=O)CN(Cc2ccccc2)C(=O)[C@H]([C@@H](C)O)NC(=O)[C@@H](C(C)(C)S)NC(=O)[C@H](CCCNC(=N)N)NC(=O)CNC(=O)[C@H](CC(=O)O)NC(=O)[C@@H]2CCCN2C(=O)[C@H](Cc2ccccc2)NC(=O)[C@H](CS)NC1=O	1.15 ×10⁵ /M	
CC[C@H](C)[C@@H]1NC(=O)[C@@H]2CCCN2C(=O)[C@@H]2CCCN2C(=O)[C@H]([C@@H](C)CC)NC(=O)[C@H](CO)NC(=O)[C@H](Cc2ccccc2)NC(=O)[C@H]([C@@H](C)O)NC(=O)CN(CCS)C(=O)[C@H](CCCNC(=N)N)NC(=O)CNC(=O)[C@H](CC(=O)O)NC(=O)[C@@H]2CCCN2C(=O)[C@H](Cc2ccccc2)NC(=O)[C@H](CS)NC1=O (cyclo(CFPDGR[N(2-mercaptoethyl)Gly]TFSIPPI))	inactive	
CC[C@H](C)[C@@H]1NC(=O)[C@@H]2CCCN2C(=O)[C@@H]2CCCN2C(=O)[C@H]([C@@H](C)CC)NC(=O)[C@H](CO)NC(=O)[C@H](Cc2ccccc2)NC(=O)[C@H]([C@@H](C)O)NC(=O)CN(CCS)C(=O)[C@H](CCCNC(=N)N)NC(=O)CNC(=O)[C@H](CC(=O)O)NC(=O)[C@@H]2CCCN2C(=O)[C@H](Cc2ccccc2)NC(=O)CN(CCS)C1=O (cyclo(DGR[N(2-mercaptoethyl)Gly]TFSIPPI[N(2-mercaptoethyl)Gly]FP))	inactive	
CC[C@H](C)[C@@H]1NC(=O)[C@@H]2CCCN2C(=O)[C@@H]2CCCN2C(=O)[C@H]([C@@H](C)CC)NC(=O)[C@H](CO)NC(=O)[C@H](CCCCN)NC(=O)[C@H]([C@@H](C)O)NC(=O)[C@H](CS)NC(=O)[C@H](CCCNC(=N)N)NC(=O)CNC(=O)[C@H](CC(=O)O)NC(=O)[C@@H]2CCCN2C(=O)[C@H](Cc2ccccc2)NC(=O)[C@H](CS)NC1=O	4.9 ×10⁶ /M	9.9 ×10⁹ /M
CC[C@H](C)[C@@H]1NC(=O)[C@@H]2CCCN2C(=O)[C@@H]2CCCN2C(=O)[C@H]([C@@H](C)CC)NC(=O)[C@H](CO)NC(=O)[C@H](Cc2ccccc2)NC(=O)[C@H]([C@@H](C)O)NC(=O)[C@H](CCS)NC(=O)[C@H](CCCNC(=N)N)NC(=O)CNC(=O)[C@H](CC(=O)O)NC(=O)[C@@H]2CCCN2C(=O)[C@H](Cc2ccccc2)NC(=O)[C@H](CCS)NC1=O (cyclo(DGR[hCys]TFSIPPI[hCys]FP))	7.56 ×10⁹ /M	
